Laboratory results published in the supplement of paper PMC4862054.

Experiments:
Test in all cases: drug sensitivity score (DSS), CellTiter-Glo (DSS (AUC-based score)); higher = stronger drug effect (viability inhibition or cytotoxicity); extreme values may be limits of the assay
Conditions in all cases: incubation time: 72 h
DU-4475 = system: DU-4475
Outline: (§1)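 After 72 h of incubation in 384-well plates with compound at 5 concentrations (10-fold steps, 10,000-fold range set per compound), breast cancer cell lines seeded in 20 µl suspension were read first for CellTox Green fluorescence at 485/520 nm. CellTiter-Glo luminescence was measured next, after 10 min at room temperature. Normalisation on each plate used 0.1 % DMSO and a positive kill control, and the drug sensitivity score was computed from the area under the fitted dose-response curve.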

HCC1143 = system: HCC1143
Outline: as §1

Hs578T = system: Hs578T
Outline: as §1

MCF-10A = system: MCF-10A
Outline: as §1

MDA-MB-231 = system: MDA-MB-231
Outline: as §1

MDA-MB-453 = system: MDA-MB-453
Outline: as §1

MFM-223 = system: MFM-223
Outline: as §1

SK-BR-3 = system: SK-BR-3
Outline: as §1

| Structure (SMILES) | drug sensitivity score (DU-4475) | drug sensitivity score (HCC1143) | drug sensitivity score (Hs578T) | drug sensitivity score (MCF-10A) | drug sensitivity score (MDA-MB-231) | drug sensitivity score (MDA-MB-453) | drug sensitivity score (MFM-223) | drug sensitivity score (SK-BR-3) |
| --- | --- | --- | --- | --- | --- | --- | --- | --- |
| Cc1ccc(C(=O)N(CCCN)[C@@H](c2oc3cc(Cl)ccc3c(=O)c2Cc2ccccc2)C(C)C)cc1 | 0 | 0 | 0 | 0 | 0 | 0 | 0 | 0 |
| CO[C@H]1/C=C\C=C(/C)C(=O)NC2=CC(=O)C(NCCN(C)C)=C(C[C@@H](C)C[C@H](OC)[C@H](O)[C@@H](C)/C=C(\C)[C@@H]1OC(N)=O)C2=O [Alvespimycin] | 17.6 | 12.1 | 10.6 | 14.9 | 13.3 | 15.3 | 13.1 | 14.5 |
| O=C(O)c1ccc(-c2c[nH]c3ncc(-c4ccccc4)cc23)cc1C1CCCC1 | 0 | 0 | 0.128 | 0 | 0 | 0 | 0 | 2.12 |
| N.N.[Cl][Pt][Cl] [Cisplatin] | 0 | 0 | 0 | 0 | 0 | 0 | 0 | 0 |
| Cn1c(Nc2ccc(C(F)(F)F)cc2)nc2cc(Oc3ccnc(-c4ncc(C(F)(F)F)[nH]4)c3)ccc21 [RAF265] | 1.18 | 0 | 2.49 | 0 | 0 | 0 | 2.07 | 0 |
| C=C(c1ccc(C(=O)O)cc1)c1cc2c(cc1C)C(C)(C)CCC2(C)C [Bexarotene] | 0 | 0 | 0 | 0 | 0 | 0 | 0 | 2.44 |
| COc1cc([C@@H]2c3cc4c(cc3[C@@H](O[C@@H]3O[C@@H]5CO[C@@H](C)O[C@H]5[C@H](O)[C@H]3O)[C@H]3COC(=O)[C@H]23)OCO4)cc(OC)c1O [Etoposide] | 9.9 | 4.37 | 2.84 | 0 | 0.846 | 0 | 0 | 9.09 |
| CCCCCCCCCCCCCCCCCCOP(=O)([O-])OC1CC[N+](C)(C)CC1 [Perifosine] | 0 | 0 | 0 | 0.579 | 0 | 0 | 0 | 0 |
| CS(=O)(=O)c1ccc(C2=C(c3ccccc3)C(=O)OC2)cc1 [Rofecoxib] | 0 | 0 | 0 | 0 | 0 | 0 | 0 | 0 |
| Oc1nc(-c2ccc(C(F)(F)F)cc2)nc2c1CSCC2 [XAV-939] | 0 | 0 | 0 | 0 | 2.7 | 0.956 | 0 | 0 |
| N#CCNC(=O)c1ccc(-c2ccnc(Nc3ccc(N4CCOCC4)cc3)n2)cc1 [Momelotinib] | 0 | 1.42 | 4.38 | 5.18 | 4.43 | 0 | 0 | 2.75 |
| Cc1ccc(-n2nc(C(C)(C)C)cc2NC(=O)Nc2ccc(OCCN3CCOCC3)c3ccccc23)cc1 [Doramapimod] | 0 | 0 | 0 | 0 | 0 | 1.59 | 2.15 | 0 |
| CN(N=O)C(=O)N[C@@H](C=O)[C@@H](O)[C@H](O)[C@H](O)CO [Streptozocin] | 0 | 0 | 0 | 0 | 0 | 0 | 0 | 0 |
| CNCc1ccc(-c2[nH]c3cc(F)cc4c3c2CCNC4=O)cc1 [Rucaparib] | 0 | 0 | 0 | 0 | 0 | 0 | 0 | 0 |
| CC(C)Cn1cnc2c(N)nc3ccccc3c21 [Imiquimod] | 0 | 0 | 0 | 0 | 0 | 0 | 0 | 0 |
